Experimental data taken from BigSolDB 2.1.

CCc1ccc2c(c1)C(=O)c1ccccc1C2=O
solubility (mole fraction)
Conditions	304.15 K	309.15 K	314.15 K	319.15 K	324.15 K	329.15 K	334.15 K	339.15 K	344.15 K
in 2-methyl-cyclohexyl acetate	0.0752	0.0907	0.104	0.127	0.145	0.171	0.199	0.232	0.268
in 2-phenylethanol	0.107	0.127	0.15	0.176	0.21	0.248	0.288	0.334	0.385
in DMAc	0.0943	0.113	0.131	0.156	0.184	0.214	0.248	0.287	0.336
in DMF	0.107	0.126	0.153	0.176	0.21	0.245	0.283	0.335	0.388
in acetophenone	0.138	0.163	0.185	0.21	0.238	0.274	0.315	0.356	0.397
in diglyme	0.165	0.191	0.216	0.244	0.275	0.314	0.357	0.401	0.444
in diisobutyl methanol	0.0441	0.0536	0.0651	0.0787	0.0973	0.116	0.139	0.163	0.199
in dioctyl adipate	0.0657	0.0773	0.0899	0.107	0.129	0.152	0.18	0.209	0.242
in mesitylene	0.139	0.159	0.184	0.209	0.234	0.264	0.296	0.329	0.371
in styrene	0.0944	0.112	0.132	0.153	0.182	0.212	0.248	0.285	0.335
in tetrabutyl urea	0.0531	0.0644	0.0785	0.0947	0.116	0.139	0.17	0.197	0.24
in trioctyl phosphate	0.0569	0.0678	0.0792	0.0959	0.114	0.135	0.155	0.182	0.22
